In ChEMBL document CHEMBL1201862, “PubChem BioAssay data set” (2004):
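Values below derive from 48-hour exposures of cells grown in 96-well plates, with endpoints linearly interpolated between the two concentrations bracketing the appropriate inhibition level. The concentration for 50% growth inhibition is given as GI50.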 Activity calls are given as the source filed them. Cut-off read from the data, not from the text of the source: active = GI50 up to about 1.1 µM and inactive = higher.

How the values were obtained:
Assay in all cases: NCI anticancer screen, dose series, 48 h
[1] = system: KM12
[2] = system: RPMI-8226
[3] = system: HOP-92
[4] = system: PC-3
[5] = system: MCF7
[6] = system: OVCAR-4
[7] = system: CCRF-CEM
[8] = system: SR
[9] = system: U-251
[10] = system: A498
[11] = system: SW-620
[12] = system: COLO 205
[13] = system: ACHN
[14] = system: NCI-H522
[15] = system: NCI-H23
[16] = system: IGROV-1
[17] = system: SK-OV-3
[18] = system: NCI-H226
[19] = system: OVCAR-8
[20] = system: RXF 393

Measured: GI50

O=C(O)[C@@]1(Cc2ccc(O)cc2)C[C@@H]2Cc3ccccc3N2N1
inactive: [1] > 100 µM | [2] > 100 µM | [3] > 100 µM | [4] > 100 µM | [5] > 100 µM | [6] > 100 µM | [7] > 100 µM | [8] > 100 µM | [9] > 100 µM | [10] > 100 µM | [11] > 100 µM | [12] > 100 µM | [13] > 100 µM | [14] > 100 µM | [15] > 100 µM | [16] > 100 µM | [17] > 100 µM | [18] > 100 µM | [19] > 100 µM

COc1cccc(C(C#N)NC23CC4CC(CC(C4)C2)C3)c1 (stereo not drawn)
inactive: [1] > 100 µM | [2] > 100 µM | [3] > 100 µM | [4] > 100 µM | [20] > 100 µM | [5] > 100 µM | [6] > 100 µM | [7] > 100 µM | [8] > 100 µM | [9] > 100 µM | [11] > 100 µM | [12] > 100 µM | [13] > 100 µM | [14] > 100 µM | [15] > 100 µM | [16] > 100 µM | [17] > 100 µM | [18] > 100 µM | [19] > 100 µM

O=C(O)CCCCn1ccc(=O)[nH]c1=O
inactive: [1] > 100 µM | [2] > 100 µM | [4] > 100 µM | [20] > 100 µM | [5] > 100 µM | [6] > 100 µM | [7] > 100 µM | [8] > 100 µM | [9] > 100 µM | [10] > 100 µM | [11] > 100 µM | [12] > 100 µM | [13] > 100 µM | [14] > 100 µM | [15] > 100 µM | [16] > 100 µM | [17] > 100 µM | [18] > 100 µM | [19] > 100 µM

O=[N+]([O-])/C(Cl)=C(\NCCN/C(C(Cl)=C(Cl)Cl)=C(/Cl)[N+](=O)[O-])C(Cl)=C(Cl)Cl
inactive: [1] 31.8 µM | [2] 17.7 µM | [3] 17.9 µM | [4] 43.6 µM | [5] 47.6 µM | [7] 27 µM | [8] 17.1 µM | [9] 48.8 µM | [10] 48.1 µM | [11] 47.5 µM | [12] 36.4 µM | [13] > 100 µM | [15] 28.7 µM | [16] 62.7 µM | [17] 69.5 µM | [18] > 100 µM | [19] 40.3 µM

CN1C(=S)C(c2ccccc2)Sc2ccccc21 (stereo not drawn)
inactive: [1] 63.7 µM | [2] > 100 µM | [4] 17.6 µM | [20] 50.2 µM | [5] 48.8 µM | [6] > 100 µM | [7] 8.77 µM | [8] 64.4 µM | [9] > 100 µM | [12] 47.4 µM | [13] > 100 µM | [14] 54.3 µM | [15] 55.7 µM | [16] > 100 µM | [17] 42.8 µM | [18] 90.6 µM | [19] 43.3 µM

N#Cc1nc(-c2cccc(-c3nc(C#N)c(N)o3)n2)oc1N
inactive: [1] > 100 µM | [2] > 100 µM | [3] > 100 µM | [4] > 100 µM | [5] > 100 µM | [6] > 100 µM | [7] 21.2 µM | [8] > 100 µM | [9] > 100 µM | [10] > 100 µM | [11] > 100 µM | [12] > 100 µM | [13] > 100 µM | [14] > 100 µM | [15] > 100 µM | [16] > 100 µM | [17] > 100 µM | [18] > 100 µM | [19] > 100 µM

CCCCn1c(C)c(C(=O)OCC)c2cc(OCc3ccc(C(=O)Nn4c(C)ccc4C)cc3)c(Br)cc21
inactive: [1] > 100 µM | [2] > 100 µM | [3] > 100 µM | [4] > 100 µM | [5] > 100 µM | [6] > 100 µM | [7] > 100 µM | [8] > 100 µM | [9] > 100 µM | [10] > 100 µM | [11] > 100 µM | [12] > 100 µM | [13] > 100 µM | [14] > 100 µM | [15] > 100 µM | [16] > 100 µM | [17] > 100 µM | [18] > 100 µM | [19] > 100 µM

Cc1ccc(S(=O)(=O)OC2=C/C(=N\c3onc(C)c3C)c3ccccc3C2=O)cc1
inactive: [1] 20.2 µM | [2] 7.96 µM | [3] 18.8 µM | [4] 20.6 µM | [5] 17.3 µM | [6] 16.4 µM | [8] 3.01 µM | [9] 4 µM | [10] > 100 µM | [11] 28.2 µM | [12] 86.5 µM | [13] 26.3 µM | [14] 7.46 µM | [15] 22.6 µM | [16] > 10 µM | [17] 28.7 µM | [18] 35.4 µM | [19] 18.3 µM

Cc1cccc(C(C)O)n1 (stereo not drawn)
inactive: [1] > 100 µM | [4] > 100 µM | [5] > 100 µM | [6] > 100 µM | [7] > 100 µM | [8] > 100 µM | [9] > 100 µM | [10] > 100 µM | [11] > 100 µM | [12] > 100 µM | [13] > 100 µM | [14] > 100 µM | [15] > 100 µM | [16] > 100 µM | [17] > 100 µM | [18] > 100 µM | [19] > 100 µM

COC(=O)CSc1nc2[nH]c(SC)c(C(N)=O)c2c(=O)n1-c1ccccc1
inactive: [1] > 10 µM | [2] > 10 µM | [3] > 10 µM | [4] > 10 µM | [20] > 10 µM | [5] > 10 µM | [6] > 10 µM | [7] > 10 µM | [8] > 10 µM | [11] > 10 µM | [12] > 10 µM | [15] > 10 µM | [16] > 10 µM | [17] > 10 µM | [19] > 10 µM

COc1cc2c(cc1OC)[C@@H]1[C@H](C#N)C(=O)C(C)(C)N1CC2
inactive: [1] > 100 µM | [2] 53.7 µM | [3] > 100 µM | [4] > 100 µM | [5] > 100 µM | [6] > 100 µM | [7] > 100 µM | [8] > 100 µM | [9] > 100 µM | [10] > 100 µM | [11] > 100 µM | [12] > 100 µM | [13] > 100 µM | [14] > 100 µM | [15] > 100 µM | [16] > 100 µM | [17] > 100 µM | [18] > 100 µM | [19] > 100 µM
